Source: patent publication US20160221992A1, “DENDRITIC COMPOUNDS INCLUDING A CHELATING, FLUOROCHROME OR RECOGNITION AGENT, COMPOSITIONS INCLUDING SAME AND USES THEREOF” (UNIVERSITE DE STRASBOURG, priority 2013, published 2016)

Tests used:
[1] = tested on: murine melanoma (B16FO line); experiment: Quantitative study of tumoral fixation and biodistribution of the radiolabeled compound (ex-vivo gamma counting after IV injection); type: in vivo, C57B16 mice; details: for % Elimination/Al / Ratio (g)/Al TU/kidneys / Ratio (g)/Al Tu/Liver / Ratio (g)/Al Tu/Lungs / Ratio (g)/Al Tu/blood / Tumor (g/Al %): Indium-111-radiolabeled, IV
Experimental: C57B16 mice bearing xenografts of murine melanoma (B16FO line) obtained by subcutaneous injection of 300 000 cells suspended in 100 μl of RPMI culture medium are injected subcutaneously in the back. The experiment is performed when the tumors are palpable. i.e. about 10 days […]. All the experiments (tumoral graft, injection and imaging) are carried out under isoflurane/oxygen (2.5%/2.5%) gas anesthesia.
Injection of 50 to 100 microliters of the radiolabeled solution, with a maximum activity of 20 MBQ, by direct intravenous injection (caudal vein). The activity of the empty syringe after injection+compress is also measured for calculating the actual activity injected (actual Ac injected=Ac normalized full syringe—normalized activity (empty syringe and compress). Normalization consists in calculating the theoretical activity at one and the same time chosen as reference (for example the time of injection). The measurements are performed on a regularly calibrated activity meter for medical use (Medisystem©).
(§1) Scintigraphic imaging is carried out using a dedicated small animal micro-5 imager SPECT-CT (BIOSCAN™). A planar scintigraphic image is obtained immediately after injection to verify absence of intracaudal stasis. If there is stasis, the mouse will be sacrificed at late times (24 or 48 h). Static scintigraphic images may be recorded at 2 h, 4 h, 24 h and 48 h (Imager micro-SPECT-CT BIOSCAN©).
This is done ex-vivo by gamma counting of the various samples, using a gamma well counter for medical use, regularly calibrated for the isotopes used (Tc-99m and In-111). The animals are euthanized according to the protocols allowed by the animal ethics committee at 2 h, 4 h, 24 h or 48 h. The main organs are removed (brain, spleen, kidneys, lungs, heart, alimentary canal, liver) as well as a fragment of skin, muscle, bone and a blood sample and the whole tumor. Each sample is weighed and its gamma activity is counted in a sample-changing well counter for dedicated medical use, calibrated for the radioelements used. The animal's carcass is also weighed after removing the tail; these samples are incinerated and their gamma activity is also measured. The gamma activity of the samples containing all the collected urine and the feces is also measured. The activity of each sample is normalized (relative to the time of injection), and the ratio of the activity of each sample is calculated relative to the total activity injected (=the sum of all of the activities measured except that of the tail), expressed in % per gram of tissue, for calculating the ratio of the activity present in the tumor relative to the main organs (liver, kidneys, lungs and blood). The percentage of the activity eliminated is calculated.
The mean values of all of the data for all of the mice whose data are exploitable are calculated, as well as after eliminating the animals with urinary excretion that is too quick (>50% at 2 h or 75% at 4 h, as well as the mice with tumors >2 g, as the existence of necrosis may distort the calculation of the ratio of fixation in the tumor).
The biodistribution data of the various dendrimer compounds coupled to the IFC01102 ligand (also called amine R) and to a chelating agent are compared with those of the ligand alone coupled to the DOTA chelating agent (compound AP045) and radiolabeled with the same radioelement. 8.5 Results with Compound APAG9-1 (Radiolabeled with Tc99m) The radiochemical purity is above 95%, according to the chromatographic profile obtained as described above (example 5). 12 animals were injected. The average activity injected is 3.5±2.4 MBq. 2 animals were euthanized at 2 h, 4 at 24 h and 48 h post-injection. Examples of planar image immediately post-injection and 2 hours post-injection are illustrated in FIG. 3.

[2] = Lymphatic drainage after intradermal injection in the hind paws (sentinel lymph node characterization, scintigraphy/SPECT); type: in vivo, mouse; details: SPECT 3 h after intradermal injection, indium-111, 10 MBq
Experimental: as §1, with “performed” for “carried out”, “stasis.” for “stasis. If there is stasis, the mouse will be sacrificed at late times (24 or 48 h).”
Intradermal injection of 1 to 20 microliters of a suspension of radiolabeled dendrimers with a hypodermic syringe in the pad of the hindpaw of a nude mouse. A whole-body planar scintigraphic image of the mouse is obtained 5 minutes after injection to verify absence of passage of the compound through the blood. Acquisition of tomographic images (SPECT) every 30 minutes to monitor the lymphatic drainage of the compound and determine the time of disappearance of the signal in the popliteal lymph node. 9.3.a Injection of Compound X1 Labeled with Tc99m (Generation 2 Molecule)

[3] = 48 post-IV, first series (all animals)
[4] = 48 post-IV, second series (two mice with too quick urinary excretion eliminated)
[5] = 2 h post-iv, first series (all animals)
[6] = 2 h post-iv, second series (two mice with too quick urinary excretion eliminated)
[7] = 4 h post-IV, first series (all animals)
[8] = 4 h post-IV, second series (two mice with too quick urinary excretion eliminated)
[9] = 24 h post-IV, first series (all animals)
[10] = 24 h post-IV, second series (two mice with too quick urinary excretion eliminated)

## CCN(CC)CCNC(=O)c1cnc2cc(NC(=O)NCCOCCOCCNC(=O)CCOCCOCCOCCOCCNC(=O)CCN(CCC(=O)NCCOCCOCCOCCOCCC(=O)NCCOCCOCCNC(=O)Nc3ccc4nc(C(=O)NCCN(CC)CC)cnc4c3)Cc3cn(CCOCCOCCOCCOCCOCCOCCOCCNC(=O)CN4CCN(CC(=O)O)CCN(CC(=O)O)CCN(CC(=O)O)CC4)nn3)ccc2n1 [AP071]
[1]; [3]
  % Elimination/Al: 8.5E+01%
  Ratio (g)/Al TU/kidneys: 3.15E−01
  Ratio (g)/Al Tu/Liver: 4.79E−01
  Ratio (g)/Al Tu/Lungs: 2.85E+00
  Ratio (g)/Al Tu/blood: 1.17E+01
  Tumor (g/Al %): 3.40E−01 g/Al %
[1]; [4]
  % Elimination/Al: 8.5E+01%
  Ratio (g)/Al TU/kidneys: 3.15E−01
  Ratio (g)/Al Tu/Liver: 4.79E−01
  Ratio (g)/Al Tu/Lungs: 2.86E+00
  Ratio (g)/Al Tu/blood: 1.17E+01
  Tumor (g/Al %): 3.40E−01 g/Al %
[1]; [5]
  % Elimination/Al: 6.0E+01%
  Ratio (g)/Al TU/kidneys: 2.41E−02
  Ratio (g)/Al Tu/Liver: 1.38E−01
  Ratio (g)/Al Tu/Lungs: 2.43E−01
  Ratio (g)/Al Tu/blood: 8.69E−01
  Tumor (g/Al %): 4.42E+00 g/Al %
[1]; [6]
  % Elimination/Al: 5.1E+01%
  Ratio (g)/Al TU/kidneys: 2.25E−01
  Ratio (g)/Al Tu/Liver: 4.89E−01
  Ratio (g)/Al Tu/Lungs: 9.54E−01
  Ratio (g)/Al Tu/blood: 2.73E+00
  Tumor (g/Al %): 6.57E+00 g/Al %
[1]; 4 hours after IV injection, Indium-111
  tumoral uptake (in words): very high
[1]; [7]
  % Elimination/Al: 7.3E+01%
  Ratio (g)/Al TU/kidneys: 1.12E+00
  Ratio (g)/Al Tu/Liver: 2.09E+00
  Ratio (g)/Al Tu/Lungs: 6.20E+00
  Ratio (g)/Al Tu/blood: 3.92E+01
  Tumor (g/Al %): 1.62E+01 g/Al %
[1]; [8]
  % Elimination/Al: 6.9E+01%
  Ratio (g)/Al TU/kidneys: 1.39E+00
  Ratio (g)/Al Tu/Liver: 2.80E+00
  Ratio (g)/Al Tu/Lungs: 8.36E+00
  Ratio (g)/Al Tu/blood: 7.20E+01
  Tumor (g/Al %): 2.25E+01 g/Al %
[1]; [9]
  % Elimination/Al: 8.5E+01%
  Ratio (g)/Al TU/kidneys: 4.61E−01
  Ratio (g)/Al Tu/Liver: 6.98E−01
  Ratio (g)/Al Tu/Lungs: 2.88E+00
  Ratio (g)/Al Tu/blood: 9.46E+00
  Tumor (g/Al %): 3.07E+00 g/Al %
[1]; [10]
  % Elimination/Al: 8.5E+01%
  Ratio (g)/Al TU/kidneys: 4.61E−01
  Ratio (g)/Al Tu/Liver: 6.98E−01
  Ratio (g)/Al Tu/Lungs: 2.88E+00
  Ratio (g)/Al Tu/blood: 9.46E+00
  Tumor (g/Al %): 3.07E+00 g/Al %
[1]; APAG22-1: at two hours post-IV
  tumoral uptake compared with the ligand alone (AP045): far higher

## COCCOCCOCCOCCOc1cc(C(=O)NCCCCNC(=O)CN2CCN(CC(=O)O)CCN(CC(=O)O)CCN(CC(=O)O)CC2)cc(OCCOCCOCCOCCOC)c1OCCOCCOCCOCCOC [APAG4]
[2]
  drainage in the entire lymphatic network as far as the lumbar-aortic stage: clearly visible
